This is an account of results in patent publication US20250186324A1, “SYNERGISTIC SKIN DEPIGMENTING COSMETIC COMPOSITION” (priority 2022, published 2025).

In assay [1] the test system is SCF pathway. As to the kind of experiment: SCF pathway in melanocytes: melanogenesis-regulating gene expression after CBD stimulation (qPCR). As to conditions: 2.5 μM cannabidiol; 0.5 and 5 μM apigenin or 10 and 25 μM phloretin; 24 hours; genes DCT, PAX3. Format: cell-based, human. The protocol:
In order to assess the inhibition of the SCF pathway in melanocytes, human epidermal melanocytes were cultured with 2.5 μM cannabidiol (CBD)+0.5 and 5 μM apigenin or 10 and 25 μM phloretin for 24 hours. After the treatment, the RNA was extracted (Norgen, #17200) and a real-time qPCR was performed (Takara, #R[…]) on the DCT and PAX3 genes.
Background: Quantitative PCR measures a nucleic acid by following its amplification.

For assay [2], the system named is VEGF. In words: VEGF gene expression (real-time qPCR) in dermal fibroblasts. The format is cell-based, human. As to conditions: 10 and 25 μM apigenin, 24 hours. The protocol: (§1) To assess the levels of key pigmentation regulatory markers in fibroblasts, dermal fibroblasts (Promocell, #C-12302) were cultured for 24 hours with the active ingredient apigenin. After the treatment, the RNA was extracted (Norgen, #17200) and real-time qPCR was performed (Takara, #R[…]) on the DKK1 and VEGF genes.

Assay [3] relates to Wnt pathway. In words: Wnt pathway in melanocytes: melanogenesis-regulating gene expression after BIO stimulation (qPCR). Format: cell-based, human. As to conditions: 0.1 μM BIO; 0.5 and 5 μM apigenin or 10 and 25 μM phloretin; 24 hours; genes TYRP1, DCT, PAX3, PMEL17. How it is done:
After the treatment, the RNA was extracted (Norgen, #17200) and a real-time qPCR was performed (Takara, #R[…]) on the TYRP1, DCT, PAX3 and PMEL17 genes.

The test system of assay [4] is miR-675. In words: miR-675 levels in melanocytes (real-time qPCR). Format: cell-based. As to conditions: human epidermal melanocytes, 0.5 μM apigenin, 24 hours. The protocol: In order to assess the effect of miRNA levels in melanocytes, human epidermal melanocytes were cultured with 0.5 μM apigenin or 10 μM phloretin for 24 hours. After the treatment, the RNA was extracted (Norgen, #17200) and a real-time qPCR was performed (Takara, #638313) on miR-675.

The subject of assay [5] is DKK1. As to the kind of experiment: DKK1 gene expression (real-time qPCR) in dermal fibroblasts. The format is cell-based, human. As to conditions: 10 and 25 μM apigenin, 24 hours. The protocol: as §1
Assay [6] has as its system skin hyperpigmentation. As to conditions: mice treated with UVB; cited from earlier work.
The subject of assay [7] is tyrosinase. As to conditions: spectroscopy and chromatography; cited from earlier work.

For `O=c1cc(-c2ccc(O)cc2)oc2cc(O)cc(O)c12` [apigenin, 5,7-dihydroxy-2-(4-hydroxyphenyl)-4H-1-benzopyran-4-one], the “expression of the melanogenesis-regulating genes after stimulation with CBD” value in assay [1] is “significantly reduce”. Besides, in assay [2], the VEGF expression result is “reduces”. Moreover, the “expression of melanogenesis-regulating genes after stimulation with BIO” value in assay [3] is given as “significantly reduce”. In addition, in assay [4], the miR-675 levels entry was “significantly increasing”. The DKK1 expression entry in assay [5] was “significantly induces”. For the same molecule, the skin hyperpigmentation result in assay [6] was “inhibits”.

For `O=C(CCc1ccc(O)cc1)c1c(O)cc(O)cc1O` [phloretin, 3-(4-hydroxyphenyl)-1-(2,4,6-trihydroxyphenyl)propane-1-one], in assay [1], the “expression of the melanogenesis-regulating genes after stimulation with CBD” value is “significantly reduce”. The “expression of melanogenesis-regulating genes after stimulation with BIO” value in assay [3] is reported as “significantly reduce”. Moreover, the action on tyrosinase entry in assay [7] was “a tyrosinase substrate but also an inhibitor”.
